# Reference: publication PMC11005723, “Development of Complementary Photo‐arginine/lysine to Promote Discovery of Arg/Lys hPTMs Interactomes” (Advanced Science, 2024)
# Non-standard residues stand in square brackets, D forms with d. No end group written: not given here. *: point of attachment. Biotin = O=C1N[C@H]2[C@H](CS[C@H]2CCCCC(=O)*)N1; R(dz) = photo-arginine
# Tested on: HEK293T nuclear lysates
# Assay: SILAC‐based pull‐down proteomics H4K5me1/H4K5 (probes 6/5)
# Assay type: binding, human
# Details: for C6 log (H4K5me/H4K5): run C6; for B6 log2 (H4K5me/H4K5): run B6
substance,measurement,setting,value
probe 6: H4K5me peptide probe with photo‐arginine R(dz) and K(biotin) (SG[R(dz)]GK(Me)GGKGLGKGGK(Biotin)),C6 log (H4K5me/H4K5),protein P46109 CRKL,0.1336
same,B6 log2 (H4K5me/H4K5),protein P49959 MRE11A,0.207
same,C6 log (H4K5me/H4K5),protein P49959 MRE11A,0.09642
same,B6 log2 (H4K5me/H4K5),protein P54886 ALDH18A1,0.2574
same,C6 log (H4K5me/H4K5),protein P54886 ALDH18A1,0.1226
same,B6 log2 (H4K5me/H4K5),protein P60842 EIF4A1,0.1721
same,C6 log (H4K5me/H4K5),protein P60842 EIF4A1,0.03464
same,B6 log2 (H4K5me/H4K5),protein P62140 PPP1CB,0.1941
same,C6 log (H4K5me/H4K5),protein P62140 PPP1CB,0.1375
same,B6 log2 (H4K5me/H4K5),protein P78527 PRKDC,0.1659
same,C6 log (H4K5me/H4K5),protein P78527 PRKDC,0.03578
same,B6 log2 (H4K5me/H4K5),protein P82979 SARNP,0.2593
same,C6 log (H4K5me/H4K5),protein P82979 SARNP,0.2358
same,B6 log2 (H4K5me/H4K5),protein P83916 CBX1,1.115
same,C6 log (H4K5me/H4K5),protein P83916 CBX1,1.115
same,B6 log2 (H4K5me/H4K5),protein Q5JRI1 FUSIP1,0.2091
same,C6 log (H4K5me/H4K5),protein Q5JRI1 FUSIP1,0.05687
same,B6 log2 (H4K5me/H4K5),protein Q5QPR4 CDC2L2,0.1546
same,C6 log (H4K5me/H4K5),protein Q5QPR4 CDC2L2,0.218
same,B6 log2 (H4K5me/H4K5),protein Q5SY16 NOL9,0.2457
same,C6 log (H4K5me/H4K5),protein Q5SY16 NOL9,0.6439
same,B6 log2 (H4K5me/H4K5),protein Q5T760 SFRS11,0.2194
same,C6 log (H4K5me/H4K5),protein Q5T760 SFRS11,0.159
same,B6 log2 (H4K5me/H4K5),protein Q5UIP0 RIF1,0.2471
same,C6 log (H4K5me/H4K5),protein Q5UIP0 RIF1,0.213
same,B6 log2 (H4K5me/H4K5),protein Q6PD62 CTR9,0.2151
same,C6 log (H4K5me/H4K5),protein Q6PD62 CTR9,0.2109
same,B6 log2 (H4K5me/H4K5),protein Q6PJT7 ZC3H14,0.2381
same,C6 log (H4K5me/H4K5),protein Q6PJT7 ZC3H14,0.2485
same,B6 log2 (H4K5me/H4K5),protein Q7Z6E9 RBBP6,0.1468
same,C6 log (H4K5me/H4K5),protein Q7Z6E9 RBBP6,0.358
same,B6 log2 (H4K5me/H4K5),protein Q8IX15 HOMEZ,0.2323
same,C6 log (H4K5me/H4K5),protein Q8IX15 HOMEZ,0.1198
same,B6 log2 (H4K5me/H4K5),protein Q8N3X1 FNBP4,0.1827
same,C6 log (H4K5me/H4K5),protein Q8N3X1 FNBP4,0.2005
same,B6 log2 (H4K5me/H4K5),protein Q8N5C6 SRBD1,0.1982
same,C6 log (H4K5me/H4K5),protein Q8N5C6 SRBD1,0.09557
same,B6 log2 (H4K5me/H4K5),protein Q8N163 KIAA1967,0.1537
same,C6 log (H4K5me/H4K5),protein Q8N163 KIAA1967,0.2348
same,B6 log2 (H4K5me/H4K5),protein Q8TDD1 DDX54,0.1648
same,C6 log (H4K5me/H4K5),protein Q8TDD1 DDX54,0.2394
same,B6 log2 (H4K5me/H4K5),protein Q9BVJ6 UTP14A,0.973
same,C6 log (H4K5me/H4K5),protein Q9BVJ6 UTP14A,0.973
same,B6 log2 (H4K5me/H4K5),protein Q9H2P0 ADNP,0.2412
same,C6 log (H4K5me/H4K5),protein Q9H2P0 ADNP,-0.7035
same,B6 log2 (H4K5me/H4K5),protein Q9H7L9 SUDS3,1.175
same,C6 log (H4K5me/H4K5),protein Q9H7L9 SUDS3,1.175
same,B6 log2 (H4K5me/H4K5),protein Q9H9A6 LRRC40,0.1942
same,C6 log (H4K5me/H4K5),protein Q9H9A6 LRRC40,0.05299
same,B6 log2 (H4K5me/H4K5),protein Q9UBD5 ORC3,0.1586
same,C6 log (H4K5me/H4K5),protein Q9UBD5 ORC3,-0.1103
same,B6 log2 (H4K5me/H4K5),protein Q9UBW7 ZMYM2,0.2577
same,C6 log (H4K5me/H4K5),protein Q9UBW7 ZMYM2,0.2945
same,B6 log2 (H4K5me/H4K5),protein Q9UHB6 LIMA1,0.1593
same,C6 log (H4K5me/H4K5),protein Q9UHB6 LIMA1,0.1812
same,B6 log2 (H4K5me/H4K5),protein Q9UQ80 PA2G4,0.1452
same,C6 log (H4K5me/H4K5),protein Q9UQ80 PA2G4,-0.04803
same,B6 log2 (H4K5me/H4K5),protein Q9UQR0 SCML2,0.7435
same,C6 log (H4K5me/H4K5),protein Q9UQR0 SCML2,0.7435
same,B6 log2 (H4K5me/H4K5),protein Q9Y2L1 DIS3,0.1845
same,C6 log (H4K5me/H4K5),protein Q9Y2L1 DIS3,0.1312
same,B6 log2 (H4K5me/H4K5),protein Q9Y6C9 MTCH2,0.1565
same,C6 log (H4K5me/H4K5),protein Q9Y6C9 MTCH2,-0.06142
same,B6 log2 (H4K5me/H4K5),protein Q86VP6 CAND1,0.1606
same,C6 log (H4K5me/H4K5),protein Q86VP6 CAND1,0.2263
same,B6 log2 (H4K5me/H4K5),protein Q00839 HNRNPU,0.2071
same,C6 log (H4K5me/H4K5),protein Q00839 HNRNPU,0.1339
same,B6 log2 (H4K5me/H4K5),protein Q01082 SPTBN1,0.2576
same,C6 log (H4K5me/H4K5),protein Q01082 SPTBN1,0.166
same,B6 log2 (H4K5me/H4K5),protein Q06265 EXOSC9,0.1802
same,C6 log (H4K5me/H4K5),protein Q06265 EXOSC9,0.08146
same,B6 log2 (H4K5me/H4K5),protein Q06330 RBPJ,0.1919
same,C6 log (H4K5me/H4K5),protein Q06330 RBPJ,-0.04363
same,B6 log2 (H4K5me/H4K5),protein Q09161 NCBP1,0.2194
same,C6 log (H4K5me/H4K5),protein Q09161 NCBP1,0.2078
same,B6 log2 (H4K5me/H4K5),protein Q12874 SF3A3,0.1922
same,C6 log (H4K5me/H4K5),protein Q12874 SF3A3,0.1113
same,B6 log2 (H4K5me/H4K5),protein Q12888 TP53BP1,0.2132
same,C6 log (H4K5me/H4K5),protein Q12888 TP53BP1,0.1756
same,B6 log2 (H4K5me/H4K5),protein Q13185 CBX3,1.132
same,C6 log (H4K5me/H4K5),protein Q13185 CBX3,1.132
same,B6 log2 (H4K5me/H4K5),protein Q13363 CTBP1,0.1923
same,C6 log (H4K5me/H4K5),protein Q13363 CTBP1,-0.1428
same,B6 log2 (H4K5me/H4K5),protein Q13416 ORC2,0.2451
same,C6 log (H4K5me/H4K5),protein Q13416 ORC2,0.438
same,B6 log2 (H4K5me/H4K5),protein Q14137 BOP1,0.2019
same,C6 log (H4K5me/H4K5),protein Q14137 BOP1,-0.001199
same,B6 log2 (H4K5me/H4K5),protein Q14498 RBM39,0.2408
same,C6 log (H4K5me/H4K5),protein Q14498 RBM39,0.2735
same,B6 log2 (H4K5me/H4K5),protein Q14683 SMC1A,0.1556
same,C6 log (H4K5me/H4K5),protein Q14683 SMC1A,0.1782
same,B6 log2 (H4K5me/H4K5),protein Q15459 SF3A1,0.2515
same,C6 log (H4K5me/H4K5),protein Q15459 SF3A1,0.3427
same,B6 log2 (H4K5me/H4K5),protein Q16555 DPYSL2,0.7641
same,C6 log (H4K5me/H4K5),protein Q16555 DPYSL2,0.7641
same,B6 log2 (H4K5me/H4K5),protein Q16658 FSCN1,0.2138
same,C6 log (H4K5me/H4K5),protein Q16658 FSCN1,0.727
same,B6 log2 (H4K5me/H4K5),protein Q92688 ANP32B,0.1648
same,C6 log (H4K5me/H4K5),protein Q92688 ANP32B,0.135
same,B6 log2 (H4K5me/H4K5),protein Q99613 EIF3C,0.2459
same,C6 log (H4K5me/H4K5),protein Q99613 EIF3C,0.04711
